Tests used:
SK-BR-3 [1] = assay: Antiproliferative activity against human SK-BR-3 cells at 100 ug/ml after 72 hrs by SRB assay relative to control; assay type: functional
[2] = Antiproliferative activity against human ALL5 cells at 10 uM after 120 hrs by MTT assay relative to control; assay type: functional
JIMT-1 [3] = assay: Antiproliferative activity against human JIMT1 cells at 100 ug/ml after 72 hrs by SRB assay relative to control; assay type: functional
[4] = Antiproliferative activity against human LoVo/DX cells at 100 ug/ml after 72 hrs by SRB assay relative to control; assay type: functional
MCF-10A [5] = assay: Antiproliferative activity against human MCF10A cells at 100 ug/ml after 72 hrs by SRB assay relative to control; assay type: cell-based
MCF7 = assay: Antiproliferative activity against human MCF7 cells after 72 hrs by SRB assay; assay type: functional, cell-based; conditions: MCF7, 72 h
LoVo [6] = assay: Antiproliferative activity against human LoVo cells at 100 ug/ml after 72 hrs by SRB assay relative to control; assay type: functional
[7] = Cell cycle arrest in human ALL5 cells assessed as accumulation at S-phase at 5 times antiproliferative IC50 after 48 hrs by propidium iodide staining based flow cytometry (reference value: 9.82%); assay type: functional
[8] = Cell cycle arrest in human ALL5 cells assessed as accumulation at sub-G1 phase at 5 times antiproliferative IC50 after 96 hrs by propidium iodide staining based flow cytometry (reference value: 12%); assay type: functional
[9] = Cell cycle arrest in human ALL5 cells assessed as accumulation at G0/G1 phase at 5 times antiproliferative IC50 after 96 hrs by propidium iodide staining based flow cytometry (reference value: 69.8%); assay type: functional
[10] = Selectivity index, ratio of IC50 for human MCF10A cells to IC50 for human SK-BR-3 cells; assay type: toxicity; conditions: MCF10A cells versus SK-BR-3 cells, read-out: Ratio IC50
[11] = Cell cycle arrest in human ALL5 cells assessed as accumulation at G0/G1 phase at 5 times antiproliferative IC50 after 48 hrs by propidium iodide staining based flow cytometry (reference value: 69.6%); assay type: functional
[12] = Selectivity index, ratio of IC50 for human MCF10A cells to IC50 for human ALL5 cells; assay type: toxicity; conditions: MCF10A cells versus ALL5 cells, read-out: Ratio IC50
[13] = Antiproliferative activity against human ALL5 cells after 120 hrs by MTT assay; assay type: functional, cell-based; conditions: ALL5, 120 h
[14] = Selectivity index, ratio of IC50 for human MCF10A cells to IC50 for human LoVo cells; assay type: toxicity; conditions: MCF10A cells versus LoVo cells, read-out: Ratio IC50
JIMT-1 [15] = assay: Antiproliferative activity against human JIMT1 cells after 72 hrs by SRB assay; assay type: functional, cell-based; conditions: JIMT-1, 72 h
[16] = Selectivity index, ratio of IC50 for human MCF10A cells to IC50 for human MCF7 cells; assay type: toxicity; conditions: MCF10A cells versus MCF7 cells, read-out: Ratio IC50
[17] = Cell cycle arrest in human ALL5 cells assessed as accumulation at S-phase at 5 times antiproliferative IC50 after 96 hrs by propidium iodide staining based flow cytometry (reference value: 7.52%); assay type: functional
LoVo [18] = assay: Antiproliferative activity against human LoVo cells after 72 hrs by SRB assay; assay type: functional, cell-based
[19] = Selectivity index, ratio of IC50 for human MCF10A cells to IC50 for human JIMT1 cells; assay type: toxicity; conditions: MCF10A cells versus JIMT1 cells, read-out: Ratio IC50
[20] = Cell cycle arrest in human ALL5 cells assessed as accumulation at G2/M-phase at 5 times antiproliferative IC50 after 24 hrs by propidium iodide staining based flow cytometry (reference value: 7.98%); assay type: functional
[21] = Cell cycle arrest in human ALL5 cells assessed as accumulation at G2/M-phase at 5 times antiproliferative IC50 after 96 hrs by propidium iodide staining based flow cytometry (reference value: 11.1%); assay type: functional
MCF-10A [22] = assay: Antiproliferative activity against human MCF10A cells after 72 hrs by SRB assay; assay type: cell-based
[23] = Cell cycle arrest in human ALL5 cells assessed as accumulation at sub-G1 phase at 5 times antiproliferative IC50 after 24 hrs by propidium iodide staining based flow cytometry (reference value: 6.07%); assay type: functional
[24] = Selectivity index, ratio of IC50 for human MCF10A cells to IC50 for human LoVo/DX cells; assay type: toxicity; conditions: MCF10A cells versus LoVo/DX cells, read-out: Ratio IC50
[25] = Resistance index, ratio of IC50 for human LoVo/DX cells to IC50 for human LoVo cells; assay type: functional
[26] = Cell cycle arrest in human ALL5 cells assessed as accumulation at G0/G1 phase at 5 times antiproliferative IC50 after 24 hrs by propidium iodide staining based flow cytometry (reference value: 79.7%); assay type: functional
[27] = Cell cycle arrest in human ALL5 cells assessed as accumulation at S-phase at 5 times antiproliferative IC50 after 24 hrs by propidium iodide staining based flow cytometry (reference value: 6.76%); assay type: functional
Breast carcinoma cell [28] = assay: Ex vivo antitumor activity against patient derived breast cancer tissue assessed as decrease in tumor cell proliferation at 18.5 uM by Ki-67 staining based immunohistochemical analysis; assay type: functional; conditions: Homo sapiens, TDE = time-dependent effect
[29] = Antiproliferative activity against human LoVo/DX cells after 72 hrs by SRB assay; assay type: functional, cell-based
[30] = Cell cycle arrest in human ALL5 cells assessed as accumulation at G2/M-phase at 5 times antiproliferative IC50 after 48 hrs by propidium iodide staining based flow cytometry (reference value: 13.2%); assay type: functional
[31] = Cell cycle arrest in human ALL5 cells assessed as accumulation at sub-G1 phase at 5 times antiproliferative IC50 after 48 hrs by propidium iodide staining based flow cytometry (reference value: 7.8%); assay type: functional
Breast carcinoma cell [32] = assay: Ex vivo antitumor activity against patient derived breast cancer tissue assessed as increase in number of dead tumor cells at 18.5 uM by H and E staining based immunohistochemical analysis; assay type: functional; conditions: Homo sapiens, TDE = time-dependent effect
SK-BR-3 [33] = assay: Antiproliferative activity against human SK-BR-3 cells after 72 hrs by SRB assay; assay type: functional, cell-based; conditions: SK-BR-3, 72 h

**Q.** What does the source list for `CCOC(=O)O[C@@H]1C=C[C@]2(O[C@H]([C@@H](CC)C(=O)[C@@H](C)[C@@H](O)[C@H](C)[C@@H]3O[C@@H]([C@@H](CC)C(=O)OCC(F)(F)F)CC[C@@H]3C)[C@@H](C)C[C@H]2C)O[C@@]12CC[C@@](C)([C@H]1CC[C@](O)(CC)[C@H](C)O1)O2`?
**A.** Activity (SK-BR-3 [1]): <=50%; Activity [2]: <=50%; Activity (JIMT-1 [3]): <=50%; Activity [4]: <=50%; Activity (MCF-10A [5]): <= 50%; IC50 (MCF7): 68 µM; Activity (LoVo [6]): <=50%

**Q.** What does the source list for `CC[C@@H](C(=O)[C@@H](C)[C@@H](O)[C@H](C)[C@@H]1O[C@@H]([C@@H](CC)C(=O)NCCc2ccc(F)cc2)CC[C@@H]1C)[C@H]1O[C@]2(C=C[C@@H](OC(C)=O)[C@]3(CC[C@@](C)([C@H]4CC[C@](O)(CC)[C@H](C)O4)O3)O2)[C@H](C)C[C@@H]1C`?
**A.** Activity [7]: 2.15%; Activity [8]: 49.3%; Activity [9]: 47.3%; selectivity ratio [10]: 11; Activity [11]: 65.6%; selectivity ratio [12]: 24; IC50 [13]: 1.8 µM; selectivity ratio [14]: 11; IC50 (JIMT-1 [15]): 3.7 µM; selectivity ratio [16]: 12; Activity [17]: 1.55%; IC50 (LoVo [18]): 4 µM; selectivity ratio [19]: 12; Activity [20]: 5.08%; Activity [21]: 1.96%; IC50 (MCF-10A [22]): 43 µM; Activity [23]: 11%; selectivity ratio [24]: 12; Ratio IC50 [25]: 0.88; Activity [26]: 79.9%; Activity [27]: 4.18%; Activity (Breast carcinoma cell [28]): Tde; IC50 (MCF7): 3.7 µM; IC50 [29]: 3.5 µM; Activity [30]: 5.2%; Activity [31]: 27.4%; Activity (Breast carcinoma cell [32]): Tde; IC50 (SK-BR-3 [33]): 3.8 µM

From ChEMBL document CHEMBL4270561, “Biological activity of doubly modified salinomycin analogs - Evaluation in vitro and ex vivo” (Eur J Med Chem, 2018)
